Data reported in patent publication US20240150365A1 (Hotspot Therapeutics, Inc., priority 2022, published 2024).
Where two headings read alike, the source gives them in different places.

Legend:
[1] = molecular target: T1, MALT1 (Homo sapiens, UniProt Q9UDY8); assay: MALT-1 Fluorogenic Peptide Cleavage Assay (MALT1 inhibition assay); format: biochemical; conditions: Avi-tagged FL MALT-1, Ac-LRSR-AMC peptide substrate, 30 min pre-incubation, 90 min reaction
T1 construct: Avi-tagged FL MALT-1 (Pharmaron, stored at −70° C.); Avi tag
T1 sequence (Q9UDY8 1-824): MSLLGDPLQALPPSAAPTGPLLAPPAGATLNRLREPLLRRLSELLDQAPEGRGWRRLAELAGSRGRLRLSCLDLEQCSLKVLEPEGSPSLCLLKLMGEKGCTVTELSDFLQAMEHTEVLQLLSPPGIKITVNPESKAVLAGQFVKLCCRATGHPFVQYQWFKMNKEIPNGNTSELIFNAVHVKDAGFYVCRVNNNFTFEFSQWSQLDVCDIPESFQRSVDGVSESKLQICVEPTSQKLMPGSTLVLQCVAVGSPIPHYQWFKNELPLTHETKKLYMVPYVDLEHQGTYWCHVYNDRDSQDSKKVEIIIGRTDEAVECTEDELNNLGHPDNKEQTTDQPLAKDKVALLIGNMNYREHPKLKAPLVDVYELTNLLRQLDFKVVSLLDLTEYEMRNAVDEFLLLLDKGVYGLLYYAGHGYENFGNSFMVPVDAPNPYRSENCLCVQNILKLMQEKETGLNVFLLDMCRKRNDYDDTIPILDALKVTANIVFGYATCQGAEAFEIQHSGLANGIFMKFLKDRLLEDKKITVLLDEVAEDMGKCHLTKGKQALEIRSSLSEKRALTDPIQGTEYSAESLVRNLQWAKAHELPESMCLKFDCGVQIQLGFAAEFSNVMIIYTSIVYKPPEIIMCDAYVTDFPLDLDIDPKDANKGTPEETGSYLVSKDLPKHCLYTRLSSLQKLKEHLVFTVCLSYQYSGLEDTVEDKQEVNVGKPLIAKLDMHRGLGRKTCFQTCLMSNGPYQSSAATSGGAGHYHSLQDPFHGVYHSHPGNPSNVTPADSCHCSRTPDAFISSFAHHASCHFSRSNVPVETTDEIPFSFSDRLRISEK
Outline: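 Avi-tagged full-length MALT1 pre-incubated 30 min with compound (2% DMSO final), then cleavage of Ac-LRSR-AMC followed over 90 min at room temperature. AMC fluorescence read at 342/441 nm; % inhibition fitted to sigmoidal curves for IC50.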

[2] = system: NF-kB; assay: NF-kB reporter assay in Jurkat cells stimulated with aCD3/aCD28/PMA; format: cell-based; conditions: read-out: NF-kB Reporter Assay IC50
Outline: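 Jurkat cells (25,000/well, serum-free RPMI 1640) preincubated 1 hr at 37° C with serially diluted compound, then stimulated with aCD3/aCD28/PMA (final 5 μg/mL, 5 μg/mL, 0.03 μg/mL) for 4 hr. Reporter luminescence read with One-Glo; IC50 derived.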

[3] = Homo sapiens, Jurkat, Jurkat cells, 1 hr compound incubation, aCD3/aCD28/PMA stimulation 4 hr, One-Glo readout

| Structure (SMILES) | IC50 [1] | IC50 [2, 3] | IC50 ([2]; Jurkat cells, 1 hr compound incubation, aCD3/aCD28/PMA stimulation 4 hr, One-Glo readout) | IC50 ([2]; Homo sapiens, Jurkat) |
| --- | --- | --- | --- | --- |
| COc1ccc2cnn(C)c2c1NS(=O)(=O)c1ccc(C(C)(C)O)nc1 [Example I-178, 6-(2-Hydroxypropan-2-yl)-N-(6-Methoxy-1-Methyl-1H-Indazol-7-yl)Pyridine-3-Sulfonamide] | > 2500 nM | > 2500 nM |  |  |
| O=S(=O)(c1ccc(-n2cc(C(F)(F)F)cn2)nc1)N1CCn2ncc3cccc1c32 [Example I-294, 1-((6-(4-(trifluoromethyl)-1H-pyrazol-1-yl)pyridin-3-yl)sulfonyl)-2,3-dihydro-1H-pyrazolo[1,5,4-de]quinoxaline] | > 2500 nM | 1000 to 2500 nM |  |  |
| COc1ncc2cnn(C)c2c1NS(=O)(=O)c1ccc(-n2cc(C(F)(F)F)cn2)nc1 [Example I-74, N-(6-methoxy-1-methyl-1H-pyrazolo[4,3-c]pyridin-7-yl)-6-(4-(trifluoromethyl)-1H-pyrazol-1-yl)pyridine-3-sulfonamide] | < 400 nM |  |  | < 400 nM |
| Cn1ncc2cccc(NS(=O)(=O)c3ccc(-c4cc[nH]c(=O)c4)nc3)c21 [Example I-154, N-(1-Methyl-1H-Indazol-7-yl)-2′-Oxo-1′,2′-Dihydro-[2,4′-Bipyridine]-5-Sulfonamide] | > 2500 nM | > 2500 nM |  |  |
| Cn1ncc2cccc(NS(=O)(=O)c3ccc(-c4cnc(C5CC5)s4)nc3)c21 [Example I-265, 6-(2-cyclopropyl-1,3-thiazol-5-yl)-N-(1-methylindazol-7-yl)pyridine-3-sulfonamide] | > 2500 nM | < 400 nM |  |  |
| Cc1nn(C)c(C)c1-c1ccc(S(=O)(=O)Nc2cccc3cnn(C)c23)cn1 [Example I-89, N-(1-Methyl-1H-Indazol-7-yl)-6-(1,3,5-Trimethyl-1H-Pyrazol-4-yl)Pyridine-3-Sulfonamide] | > 2500 nM | < 400 nM |  |  |
| Cn1ncc2cccc(NS(=O)(=O)c3ccc(-n4nc(C(F)(F)F)c5c4CCOC5)nc3)c21 [Example I-298] | > 2500 nM | < 400 nM |  |  |
| COc1ccc2cnn(C)c2c1NS(=O)(=O)c1ccc(N2CC(C)(C)OC2=O)nc1 [Example I-223, 6-(5,5-Dimethyl-2-Oxooxazolidin-3-yl)-N-(6-Methoxy-1-Methyl-1H-Indazol-7-yl)Pyridine-3-Sulfonamide] | > 2500 nM | < 400 nM |  |  |
| Cn1ncc2cccc(NS(=O)(=O)c3ccc(-c4cnc(C(C)(C)O)s4)nc3)c21 [Example I-267, 6-[2-(2-hydroxypropan-2-yl)-1,3-thiazol-5-yl]-N-(1-methylindazol-7-yl)pyridine-3-sulfonamide] | > 2500 nM | 400 to 1000 nM |  |  |
| Cn1ncc2cccc(NS(=O)(=O)c3ccc(-n4cc(C(C)(C)C)cn4)nc3)c21 [Example I-276, 6-(4-tert-butylpyrazol-1-yl)-N-(1-methylindazol-7-yl)pyridine-3-sulfonamide] | > 2500 nM | < 400 nM |  |  |
| Cn1ncc2cccc(NS(=O)(=O)c3ccc(-c4cc[nH]c4)nc3)c21 [Example I-79, N-(1-Methyl-1H-Indazol-7-yl)-6-(1H-Pyrrol-3-yl)Pyridine-3-Sulfonamide] | > 2500 nM | 1000 to 2500 nM |  |  |
| Cn1ncc2cccc(NS(=O)(=O)c3ccc(-c4cnn5c4OCCC5)nc3)c21 [Example I-302, N-(1-methylindazol-7-yl)-6-{5H,6H,7H-pyrazolo[3,2-b][1,3]oxazin-3-yl}pyridine-3-sulfonamide] | > 2500 nM | < 400 nM |  |  |
| Cn1ncc2cccc(NS(=O)(=O)c3ccc(-c4cc5ccccc5[nH]4)nc3)c21 [Example I-76, 6-(1H-Indol-2-yl)-N-(1-Methyl-1H-Indazol-7-yl)Pyridine-3-Sulfonamide] | > 2500 nM | < 400 nM |  |  |
| Cc1c(CO)cnn1-c1ccc(S(=O)(=O)Nc2cccc3cnn(C)c23)cn1 [Example I-252, 6-[4-(hydroxymethyl)-5-methylpyrazol-1-yl]-N-(1-methylindazol-7-yl)pyridine-3-sulfonamide] | > 2500 nM | < 400 nM |  |  |
| COc1ccc2cnn(C)c2c1NS(=O)(=O)c1ccc(-n2nnc(C)n2)nc1 [Example I-144, N-(6-Methoxy-1-Methyl-1H-Indazol-7-yl)-6-(5-Methyl-2H-Tetrazol-2-yl)Pyridine-3-Sulfonamide] | > 2500 nM | > 2500 nM |  |  |
| Cn1ccn(-c2ccc(S(=O)(=O)Nc3cccc4cnn(C)c34)cn2)c1=O [Example I-209, N-(1-Methyl-1H-Indazol-7-yl)-6-(3-Methyl-2-Oxo-2,3-Dihydro-1H-Imidazol-1-yl)Pyridine-3-Sulfonamide] | > 2500 nM | < 400 nM |  |  |
| COc1ccc2cnn(C)c2c1NS(=O)(=O)c1ccc(-c2nc(C)no2)nc1 [Example I-169, N-(6-Methoxy-1-Methyl-1H-Indazol-7-yl)-6-(3-Methyl-1,2,4-Oxadiazol-5-yl)Pyridine-3-Sulfonamide] | 1000 to 2500 nM | > 2500 nM |  |  |

Further lines, with some results ahead:

| IC50 [1] | IC50 [2, 3] | IC50 ([2]; Jurkat cells, 1 hr compound incubation, aCD3/aCD28/PMA stimulation 4 hr, One-Glo readout) | Structure (SMILES) | IC50 ([2]; Homo sapiens, Jurkat) |
| --- | --- | --- | --- | --- |
| < 400 nM | < 400 nM |  | COc1ncc2cnn(C)c2c1NS(=O)(=O)c1ccc(-c2cc(C(F)(F)F)n[nH]2)nc1 [Example I-200, N-(6-Methoxy-1-Methyl-1H-Pyrazolo[4,3-C]Pyridin-7-yl)-6-(3-(Trifluoromethyl)-1H-Pyrazol-5-yl)Pyridine-3-Sulfonamide] |  |
| < 400 nM | 1000 to 2500 nM |  | COc1ncc2cnn(C)c2c1NS(=O)(=O)c1ccc(-c2cc(C(F)F)n[nH]2)nc1 [Example I-204, 6-(3-(Difluoromethyl)-1H-Pyrazol-5-yl)-N-(6-Methoxy-1-Methyl-1H-Pyrazolo[4,3-C]Pyridin-7-yl)Pyridine-3-Sulfonamide] |  |
| 1000 to 2500 nM | < 400 nM |  | C=Cn1ncc2cccc(NS(=O)(=O)c3ccc(-n4cc(C(F)(F)F)cn4)nc3)c21 [Example I-296, 6-(4-(trifluoromethyl)-1H-pyrazol-1-yl)-N-(1-vinyl-1H-indazol-7-yl)pyridine-3-sulfonamide] |  |
| 1000 to 2500 nM |  | < 400 nM | COc1ccc2cnn(C)c2c1NS(=O)(=O)c1ccc(-n2cc(C(C)O)cn2)nc1 (centres unmarked) [Example I-281, 6-(4-(1-Hydroxyethyl)-1H-Pyrazol-1-yl)-N-(6-Methoxy-1-Methyl-1H-Indazol-7-yl)Pyridine-3-Sulfonamide] |  |
| 400 to 1000 nM | > 2500 nM |  | COc1ncc2cnn(C)c2c1NS(=O)(=O)c1ccc(N2C[C@](O)(C(F)(F)F)CC2=O)nc1 [Example I-236, (S)-6-(4-hydroxy-2-oxo-4-(trifluoromethyl)pyrrolidin-1-yl)-N-(6-methoxy-1-methyl-1H-pyrazolo[4,3-c]pyridin-7-yl)pyridine-3-sulfonamide] |  |
| 400 to 1000 nM | < 400 nM |  | COc1ccc2cnn(C)c2c1NS(=O)(=O)c1ccc(-n2cc(C)n(C)c2=O)nc1 [Example I-202, 6-(3,4-Dimethyl-2-Oxo-2,3-Dihydro-1H-Imidazol-1-yl)-N-(6-Methoxy-1-Methyl-1H-Indazol-7-yl)Pyridine-3-Sulfonamide] |  |
| < 400 nM | < 400 nM |  | COc1ccc2cnn(C)c2c1N(C)S(=O)(=O)c1ccc(-n2ccc(C(F)(F)F)n2)nc1 [Example I-30, N-(6-Methoxy-1-Methylindazol-7-yl)-N-Methyl-6-[3-(Trifluoromethyl) Pyrazol-1-yl] Pyridine-3-Sulfonamide] |  |
| 1000 to 2500 nM | < 400 nM |  | COc1ccc2cnn(C)c2c1NS(=O)(=O)c1ccc(-c2cnn3c2CCC3)nc1 [Example I-287] |  |
